# Entries after “also recorded” stand apart in the source; their conditions may differ.
# Experiments:
# Mec1 cells = experiment: IL-10 production by Mec1 cells stimulated with LPS; format: cell-based; settings: Mec1 cells treated 24 hours
# [1] = test system: C57BL/6 mice adoptively transferred with euTCL1 splenocytes; format: in vivo; settings: for expression of PD-1 and LAG-3: adoptive transfer, Compound D feed, Compound A injection, 10 weeks post adoptive transfer
# Description: (§1) Flow cytometric analysis of peripheral blood mononuclear cells (PBMCs) was performed using fluorochrome-labeled monoclonal antibodies and the vitality dye 4′,6-diamidino-2-phenylindole. Data was acquired on an LSRII cytometer (Becton, Dickinson and Company; Franklin Lakes, NJ), and analyzed with FlowJo software (FlowJo; Ashland, Oreg). Absolute cell numbers calculated using AccuCheck Counting beads (ThermoFisher Scientific; Waltham, MA).
# (§2) All animal studies involving euTCL1 and its cross with HDAC6KO were performed following established protocols that followed approved Institutional Animal Care and Use Committee (IACUC) procedures. Two mouse models of CLL were used: an Aging CLL model, and an Accelerated CLL Model.
# Day 0 • Adoptive transfer of 5×10^6 euTCL1 or euTCL1/1-IDAC6KO splenocytes
# Week 3-5 • Flow cytometry analysis • For analysis of disease
# Week 9 • Flow cytometry analysis • For analysis of disease
# Week 12 • Flow cytometry analysis • For analysis of disease • Observe for survival
# Flow cytometry analysis and gating: B-cells (malignant population CD19+/CD5+/CD45R (B220)+/IgM+/Igk+; for normal B-cells CD19+/CD5−/CD45R (B220)+/IgM+/Igk−T-regs were identified as CD3+/CD4+/CD25 hi/IL-7R low. For Co-inhibitory molecule expression CD223 (LAG3), CD279 (PD-1), CD274 (PDL-1), and CD273 (PDL-2).
# [2] = clinical trials, myeloma and lymphoma; cited from earlier work
# euTCL1 (CLL model mouse) = experiment: Aging CLL model; format: in vivo
# Description: as §1, §2
# Birth • euTCL1 (CLL model mouse) and • euTCL1/HDAC6KO transgenic mice
# 5-7 Months • Flow cytometry analysis • For analysis of disease
# 9 Months • Flow cytometry analysis • For analysis of disease
# 12 Months • Flow cytometry analysis • For analysis of disease • Observe for survival B) Accelerated CLL Model
# CLL = settings: cited from earlier work
smiles,measurement,setting,value
"O=C(CCCCCCNC(=O)c1cnc(N(c2ccccc2)c2ccccc2)nc1)NO [Compound A, 2-(diphenylamino)-N-(7-(hydroxyamino)-7-oxoheptyl)pyrimidine-5-carboxamide]",IL-10 production,Mec1 cells,dose-dependent decrease
same,expression of PD-1 and LAG-3,[1],lower expression; also recorded: reduced
same,tolerability,[2],well-tolerated
"O=C(NO)c1cnc(NC2(c3ccccc3)CC2)nc1 [Compound D, N-hydroxy-2-((1-phenylcyclopropyl)amino)pyrimidine-5-carboxamide]",disease burden,"euTCL1 (CLL model mouse); 9 months old/25 weeks post treatment start date, vs mice treated without Compound D",significantly lower disease burden
same,expression of PD-1 and LAG-3 on T-regs,"euTCL1 (CLL model mouse); feed daily, flow cytometry, vs mice not treated",lower PD-1 and LAG-3 expression; also recorded: reduced
same,overall survival,euTCL1 (CLL model mouse); vs mice not treated,more advantageous overall survival
same,expression of PD-L1 on B cells,[1]; B cells isolated from treated mice vs non-treated animals,decrease
same,disease burden,[1]; adoptive transfer model,significantly lower disease burden
same,overall survival,[1]; adoptive transfer model,more advantageous overall survival
same,expression of PD-1 and LAG-3,[1],lower expression; also recorded: reduced
same,PD-1 and LAG3 on CD4+ T-cells,"[1]; treatment in chow, week 10 post-adoptive transfer, flow cytometry",normalization
Nc1ccccc1NC(=O)c1ccc(CNc2nccc(-c3cccnc3)n2)cc1 [MGCD0103],antileukemic activity in CLL,CLL,induced antileukemic activity
CCCC(CCC)C(=O)O [valproic acid],antileukemic activity in CLL,CLL,induced antileukemic activity
